Assay: Solubility behaviour of Ro5-3335 in aqueous solution
Assay type: physicochemical
Description: The invention provides a solution to many problems and/or drawbacks of earlier ocular formulations and features a nano-emulsion composition, e.g., a nano-emulsion comprising a core binding factor β (CBFβ)-Runt-Related Transcription Factor 1 (RUNX1) (CBFβ-RUNX1) inhibitor. […] With our emulsion, we have devised a composition to encapsulate the drug in a nanonsphere, which allows for suspension in an aqueous solution, and increases availability of the drug, and also improves penetration of ocular tissues.

SMILES: O=C1CN=C(c2ccc[nH]2)c2cc(Cl)ccc2N1 [Ro5-3335, 7-chloro-1,3-dihydro-5-(1h-pyrrol-2y-yl)-2H-1,4-benzodiazepin-2-one]
- solubility in aqueous solution: insoluble in aqueous solution

Source: patent US12440443B2, “Nano-emulsion of CBFβ-RUNX1 inhibitor for ocular drug deliver” (Massachusetts Eye and Ear Infirmary, priority 2017, dated 2025)
